This note sets out measurements from ChEMBL document CHEMBL5465560, “Selectivity Literature for EUbOPEN Chemogenomic Library” (2024).

Assay [1] deals with Serine/threonine-protein kinase MRCK alpha (Homo sapiens) (UniProt Q5VT25). Kind of assay: Selectivity interaction (Kinase panel (Z-LYTE Assay)) EUB0001632a CDC42BPA. Particulars: at 10 µM.
Assay [2] deals with Tyrosine-protein kinase ABL1 (Homo sapiens), P00519 [Q252H]. Kind of assay: Selectivity interaction (Ambit KINOMEscan and KiNATiv profiling in Jurkat cells) EUB0000090b ABL1. To be noted: at 1 µM. The class given is cell-based.
Assay [3] deals with Serine/threonine-protein kinase OSR1 (Homo sapiens) (UniProt O95747). Kind of assay: Selectivity interaction (KinomeScan (DiscoverX)) EUB0000607a OXSR1. Particulars: at 10 µM.
For assay [4], the target named is T1, Tyrosine-protein kinase ZAP-70 (Homo sapiens) (UniProt P43403).
T1 sequence (whole entry): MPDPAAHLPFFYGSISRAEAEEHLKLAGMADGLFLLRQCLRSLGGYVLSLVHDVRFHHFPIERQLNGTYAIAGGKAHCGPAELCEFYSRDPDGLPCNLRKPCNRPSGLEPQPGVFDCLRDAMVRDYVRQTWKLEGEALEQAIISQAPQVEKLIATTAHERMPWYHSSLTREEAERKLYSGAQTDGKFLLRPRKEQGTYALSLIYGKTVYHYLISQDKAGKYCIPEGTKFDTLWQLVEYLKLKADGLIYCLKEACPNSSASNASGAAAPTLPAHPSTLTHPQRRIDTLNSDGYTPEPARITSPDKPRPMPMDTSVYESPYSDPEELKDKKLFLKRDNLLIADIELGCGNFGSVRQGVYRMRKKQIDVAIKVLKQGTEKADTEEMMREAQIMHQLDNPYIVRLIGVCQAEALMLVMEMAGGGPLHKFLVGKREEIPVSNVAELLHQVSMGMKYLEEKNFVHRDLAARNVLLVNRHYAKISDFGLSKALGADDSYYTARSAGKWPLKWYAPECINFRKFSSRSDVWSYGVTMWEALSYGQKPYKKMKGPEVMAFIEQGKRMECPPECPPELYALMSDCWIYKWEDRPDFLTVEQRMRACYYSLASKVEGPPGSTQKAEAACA
In words: Selectivity interaction (KinomeScan (DiscoverX)) EUB0000607a ZAP70. To be noted: at 10 µM.

A further assay deals with Aurora kinase B (Homo sapiens, UniProt Q96GD4). To be noted: at 10 µM.
Assay [5] concerns the target Myosin light chain kinase, smooth muscle (Homo sapiens, UniProt Q15746). Kind of assay: Selectivity interaction (KinomeScan (DiscoverX)) EUB0000666a MYLK. To be noted: at 10 µM.
Assay [6] deals with Maternal embryonic leucine zipper kinase (Homo sapiens) (UniProt Q14680). In words: Selectivity interaction (Kinase panel (DSF assay)) EUB0001558a MELK. Background: DSF heats the sample and reads unfolding from a dye or from intrinsic fluorescence.
Assay [7] has as its target T2, Beta-adrenergic receptor kinase 1 (Homo sapiens) (UniProt P25098).
T2 sequence (whole entry): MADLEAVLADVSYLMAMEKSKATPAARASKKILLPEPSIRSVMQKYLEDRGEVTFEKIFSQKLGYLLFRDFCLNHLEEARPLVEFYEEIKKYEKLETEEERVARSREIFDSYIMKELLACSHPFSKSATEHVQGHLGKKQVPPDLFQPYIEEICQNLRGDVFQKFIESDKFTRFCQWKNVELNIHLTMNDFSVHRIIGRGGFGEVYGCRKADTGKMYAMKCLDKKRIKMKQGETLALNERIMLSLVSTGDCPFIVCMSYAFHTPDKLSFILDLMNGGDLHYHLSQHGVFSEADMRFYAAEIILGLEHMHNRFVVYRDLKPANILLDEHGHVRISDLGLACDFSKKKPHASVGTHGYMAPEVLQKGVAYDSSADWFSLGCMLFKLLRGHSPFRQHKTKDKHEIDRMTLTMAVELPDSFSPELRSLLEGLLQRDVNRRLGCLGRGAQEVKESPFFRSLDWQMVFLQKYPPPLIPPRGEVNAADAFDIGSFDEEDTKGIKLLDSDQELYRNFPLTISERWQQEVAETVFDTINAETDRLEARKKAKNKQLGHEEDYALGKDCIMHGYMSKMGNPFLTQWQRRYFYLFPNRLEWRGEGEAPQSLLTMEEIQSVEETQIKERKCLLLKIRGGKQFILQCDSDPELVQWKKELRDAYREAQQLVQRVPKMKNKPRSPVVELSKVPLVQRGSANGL
In words: Selectivity interaction (KinomeScan (DiscoverX)) EUB0000229b ADRBK1. Particulars: at 10 µM.

The target of assay [8] is G protein-coupled receptor kinase 4 (Homo sapiens) (UniProt P32298). Kind of assay: Selectivity interaction (KinomeScan (DiscoverX)) EUB0001079a GRK4. To be noted: at 1 µM.
Assay [9] deals with T3, Alpha-2C adrenergic receptor (Homo sapiens) (UniProt P18825).
T3 sequence (whole entry): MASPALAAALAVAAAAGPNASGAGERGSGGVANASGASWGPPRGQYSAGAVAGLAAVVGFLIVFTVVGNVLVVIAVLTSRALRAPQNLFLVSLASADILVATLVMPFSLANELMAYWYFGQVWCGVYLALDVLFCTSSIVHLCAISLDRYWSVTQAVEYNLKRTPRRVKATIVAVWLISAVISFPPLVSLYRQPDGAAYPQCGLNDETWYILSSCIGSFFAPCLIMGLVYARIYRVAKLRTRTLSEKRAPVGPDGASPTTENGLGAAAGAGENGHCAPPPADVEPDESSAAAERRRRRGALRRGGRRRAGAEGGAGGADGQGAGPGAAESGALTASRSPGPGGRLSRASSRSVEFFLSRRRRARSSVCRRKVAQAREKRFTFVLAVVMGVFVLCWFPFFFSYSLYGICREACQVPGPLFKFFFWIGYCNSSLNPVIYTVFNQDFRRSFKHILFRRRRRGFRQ
In words: Selectivity interaction (Panel of kinases, GPCRs, ion channels and transporters (enzymatic assay)) EUB0000266bCl ADRA2C.

The target of assay [10] is Receptor tyrosine-protein kinase erbB-2 (Homo sapiens, UniProt P04626). Kind of assay: Selectivity interaction (KinomeScan (DiscoverX)) EUB0001619a ERBB2. To be noted: at 1 µM.
The target in assay [11] is Tyrosine-protein kinase JAK1 (Homo sapiens, UniProt P23458). Kind of assay: Selectivity interaction (KinomeScan (DiscoverX)) EUB0001619a JAK1. To be noted: at 1 µM.
The target of another assay is SRSF protein kinase 1 (Homo sapiens, UniProt Q96SB4). Kind of assay: Selectivity interaction (ActivX KiNativ screen (kinase selectivity in THP-1 cell lysates)) EUB0000639a SRPK1. In kind it is subcellular. To be noted: lysate.
The target of assay [12] is Serine/threonine-protein kinase 38-like (Homo sapiens) (UniProt Q9Y2H1). Kind of assay: Selectivity interaction (KinomeScan (DiscoverX)) EUB0000045b STK38L.
Assay [13] addresses Protein kinase C alpha type (Homo sapiens, UniProt P17252). In words: Selectivity interaction (Upstate Kinase Profiler service (Millipore)) EUB0000056c PRKCA. To be noted: at 1 µM.

Chain of SRSF protein kinase 1 (Q96SB4 whole entry): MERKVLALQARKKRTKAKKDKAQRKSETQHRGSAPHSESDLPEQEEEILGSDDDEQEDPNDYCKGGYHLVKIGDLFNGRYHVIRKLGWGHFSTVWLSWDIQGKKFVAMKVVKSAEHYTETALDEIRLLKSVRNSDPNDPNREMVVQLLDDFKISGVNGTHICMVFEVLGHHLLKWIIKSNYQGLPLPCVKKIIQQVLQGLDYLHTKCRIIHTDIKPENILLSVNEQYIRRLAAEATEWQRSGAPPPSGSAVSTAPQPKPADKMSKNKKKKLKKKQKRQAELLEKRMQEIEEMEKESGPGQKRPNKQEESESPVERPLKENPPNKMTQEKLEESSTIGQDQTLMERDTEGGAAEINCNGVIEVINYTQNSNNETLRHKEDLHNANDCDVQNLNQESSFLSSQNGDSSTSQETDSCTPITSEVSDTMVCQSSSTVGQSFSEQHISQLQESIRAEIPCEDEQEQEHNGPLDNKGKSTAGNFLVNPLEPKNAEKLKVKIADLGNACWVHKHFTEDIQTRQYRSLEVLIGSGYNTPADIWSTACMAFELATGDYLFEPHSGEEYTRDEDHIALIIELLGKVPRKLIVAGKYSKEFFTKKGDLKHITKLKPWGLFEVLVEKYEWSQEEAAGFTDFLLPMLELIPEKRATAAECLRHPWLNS
Chain of Serine/threonine-protein kinase 38-like (Homo sapiens) (Q9Y2H1 2-464 limits assumed): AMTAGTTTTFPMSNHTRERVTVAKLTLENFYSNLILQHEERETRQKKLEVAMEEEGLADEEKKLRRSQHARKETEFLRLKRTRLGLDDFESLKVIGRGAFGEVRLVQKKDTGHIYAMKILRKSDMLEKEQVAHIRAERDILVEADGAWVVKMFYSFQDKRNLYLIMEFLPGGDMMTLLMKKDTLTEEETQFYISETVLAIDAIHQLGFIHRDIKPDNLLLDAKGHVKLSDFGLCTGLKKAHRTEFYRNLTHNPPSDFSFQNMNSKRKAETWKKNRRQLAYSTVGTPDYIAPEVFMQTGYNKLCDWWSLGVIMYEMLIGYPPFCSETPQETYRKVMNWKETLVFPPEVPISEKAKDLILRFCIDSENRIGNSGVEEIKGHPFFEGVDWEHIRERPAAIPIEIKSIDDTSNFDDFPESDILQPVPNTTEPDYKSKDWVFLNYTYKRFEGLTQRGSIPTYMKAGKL
Chain of Receptor tyrosine-protein kinase erbB-2 (P04626 whole entry): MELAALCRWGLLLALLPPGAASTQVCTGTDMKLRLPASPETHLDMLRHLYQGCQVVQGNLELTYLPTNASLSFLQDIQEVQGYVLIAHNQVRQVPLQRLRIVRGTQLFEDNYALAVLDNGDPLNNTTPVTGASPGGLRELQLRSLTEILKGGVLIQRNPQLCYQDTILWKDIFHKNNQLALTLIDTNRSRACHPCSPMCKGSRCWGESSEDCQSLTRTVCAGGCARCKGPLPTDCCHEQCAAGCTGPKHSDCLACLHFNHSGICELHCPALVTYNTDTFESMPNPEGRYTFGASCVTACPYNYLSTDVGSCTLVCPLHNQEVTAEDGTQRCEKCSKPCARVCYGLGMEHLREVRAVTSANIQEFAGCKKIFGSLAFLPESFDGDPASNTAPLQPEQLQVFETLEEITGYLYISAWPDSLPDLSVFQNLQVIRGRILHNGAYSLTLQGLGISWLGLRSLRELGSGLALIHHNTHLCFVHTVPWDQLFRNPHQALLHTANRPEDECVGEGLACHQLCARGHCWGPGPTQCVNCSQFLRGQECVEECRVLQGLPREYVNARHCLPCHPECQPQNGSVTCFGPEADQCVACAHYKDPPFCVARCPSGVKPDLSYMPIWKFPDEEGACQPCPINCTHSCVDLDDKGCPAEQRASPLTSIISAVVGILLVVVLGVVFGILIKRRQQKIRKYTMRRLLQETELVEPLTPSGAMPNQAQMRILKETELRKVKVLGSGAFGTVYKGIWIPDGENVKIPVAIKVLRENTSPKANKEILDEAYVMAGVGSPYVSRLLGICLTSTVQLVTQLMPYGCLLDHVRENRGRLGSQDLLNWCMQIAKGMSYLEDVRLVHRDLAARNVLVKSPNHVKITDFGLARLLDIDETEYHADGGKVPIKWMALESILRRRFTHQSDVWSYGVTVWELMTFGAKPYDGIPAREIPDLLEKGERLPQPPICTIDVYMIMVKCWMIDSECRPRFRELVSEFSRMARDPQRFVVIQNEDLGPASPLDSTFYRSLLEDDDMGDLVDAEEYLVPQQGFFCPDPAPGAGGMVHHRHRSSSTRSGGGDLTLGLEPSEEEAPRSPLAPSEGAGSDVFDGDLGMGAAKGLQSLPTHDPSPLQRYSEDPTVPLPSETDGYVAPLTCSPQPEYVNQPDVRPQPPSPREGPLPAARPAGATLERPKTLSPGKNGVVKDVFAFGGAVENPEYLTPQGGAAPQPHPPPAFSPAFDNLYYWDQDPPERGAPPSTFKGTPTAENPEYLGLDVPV
Chain of Tyrosine-protein kinase JAK1 (P23458 whole entry): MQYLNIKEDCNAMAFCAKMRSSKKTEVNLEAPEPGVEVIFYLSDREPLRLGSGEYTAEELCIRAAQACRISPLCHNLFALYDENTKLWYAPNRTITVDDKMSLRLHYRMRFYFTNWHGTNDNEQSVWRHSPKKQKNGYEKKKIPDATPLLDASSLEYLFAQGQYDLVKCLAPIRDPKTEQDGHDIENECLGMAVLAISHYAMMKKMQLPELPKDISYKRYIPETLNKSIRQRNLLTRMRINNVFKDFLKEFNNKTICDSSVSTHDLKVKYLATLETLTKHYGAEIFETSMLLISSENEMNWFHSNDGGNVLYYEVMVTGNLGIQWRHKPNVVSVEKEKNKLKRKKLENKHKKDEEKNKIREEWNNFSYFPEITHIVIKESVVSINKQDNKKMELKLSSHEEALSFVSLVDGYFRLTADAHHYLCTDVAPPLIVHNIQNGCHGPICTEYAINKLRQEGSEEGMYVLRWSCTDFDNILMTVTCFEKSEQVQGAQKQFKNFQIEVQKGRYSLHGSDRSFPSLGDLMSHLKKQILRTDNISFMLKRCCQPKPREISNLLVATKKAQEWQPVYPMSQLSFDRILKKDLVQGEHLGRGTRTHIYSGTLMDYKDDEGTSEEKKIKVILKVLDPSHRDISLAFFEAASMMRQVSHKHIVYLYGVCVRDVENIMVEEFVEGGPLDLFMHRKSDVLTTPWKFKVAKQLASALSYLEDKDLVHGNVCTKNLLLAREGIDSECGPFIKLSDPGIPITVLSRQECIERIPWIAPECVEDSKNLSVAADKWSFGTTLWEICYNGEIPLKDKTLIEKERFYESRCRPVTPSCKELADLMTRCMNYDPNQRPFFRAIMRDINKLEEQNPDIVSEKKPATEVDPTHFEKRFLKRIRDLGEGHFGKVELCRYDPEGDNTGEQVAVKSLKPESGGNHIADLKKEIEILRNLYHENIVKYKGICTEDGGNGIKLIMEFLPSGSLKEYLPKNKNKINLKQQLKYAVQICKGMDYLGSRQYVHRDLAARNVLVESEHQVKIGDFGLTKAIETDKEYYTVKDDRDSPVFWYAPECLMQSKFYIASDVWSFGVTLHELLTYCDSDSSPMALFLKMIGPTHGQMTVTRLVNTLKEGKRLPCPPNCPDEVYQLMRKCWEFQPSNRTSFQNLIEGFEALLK
Chain of Serine/threonine-protein kinase OSR1 (Homo sapiens) (O95747 2-527 limits assumed): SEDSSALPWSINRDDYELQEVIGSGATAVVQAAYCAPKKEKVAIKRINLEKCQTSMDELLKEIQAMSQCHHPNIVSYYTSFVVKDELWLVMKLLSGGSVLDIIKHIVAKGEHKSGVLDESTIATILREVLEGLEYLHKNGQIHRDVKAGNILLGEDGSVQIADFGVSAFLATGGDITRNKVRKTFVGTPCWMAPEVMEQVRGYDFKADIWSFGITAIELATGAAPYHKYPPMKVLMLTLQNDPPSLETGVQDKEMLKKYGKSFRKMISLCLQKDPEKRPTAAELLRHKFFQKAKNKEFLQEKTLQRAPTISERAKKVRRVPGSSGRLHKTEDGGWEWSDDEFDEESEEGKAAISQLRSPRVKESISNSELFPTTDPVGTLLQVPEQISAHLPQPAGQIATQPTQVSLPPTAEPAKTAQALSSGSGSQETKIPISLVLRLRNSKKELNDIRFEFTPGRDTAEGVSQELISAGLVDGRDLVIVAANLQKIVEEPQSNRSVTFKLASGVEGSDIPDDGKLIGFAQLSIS
Chain of Aurora kinase B (Q96GD4 whole entry): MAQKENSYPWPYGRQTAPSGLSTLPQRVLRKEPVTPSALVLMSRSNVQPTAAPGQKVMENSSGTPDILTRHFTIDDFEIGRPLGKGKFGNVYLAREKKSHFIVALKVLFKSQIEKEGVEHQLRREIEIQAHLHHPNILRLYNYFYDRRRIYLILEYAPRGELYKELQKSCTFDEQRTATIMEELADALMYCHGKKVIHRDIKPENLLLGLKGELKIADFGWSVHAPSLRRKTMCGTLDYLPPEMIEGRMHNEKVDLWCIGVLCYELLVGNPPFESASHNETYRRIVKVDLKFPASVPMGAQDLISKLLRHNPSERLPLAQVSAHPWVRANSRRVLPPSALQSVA

As for `Cn1cc(-n2cnc3c(NCc4nc5cc(Cl)c(Cl)cc5[nH]4)nc(N4CCOCC4)nc32)cn1`, the % of control in [1] was -5.27%. Regarding `CN(C)C/C=C/C(=O)Nc1ccc(C(=O)N2CCCC(Nc3ncc(Cl)c(-c4c[nH]c5ccccc45)n3)C2)cc1` (stereo not given), the % of control in assay [2] stood at 100%.

For the compound `CNC(=O)Nc1ccc(-c2nc(N3CC4CCC(C3)O4)c3cnn(C4CCC5(CC4)OCCO5)c3n2)cc1`, the % of control was 100% in assay [3] and 83% in assay [4].

`Cc1cc([C@@H](C)Nc2ccccc2C(=O)O)c2nc(N3CCOCC3)cc(=O)n2c1` [AZD-6482]: the % of control at Aurora kinase B amounted to 96%. With `O=C(NOC[C@H](O)CO)c1ccc(F)c(F)c1Nc1ccc(I)cc1F`, in assay [5], the % of control is 96%.

Turning to `CC(C)(O)[C@H](F)CN1Cc2cc(NC(=O)c3cnn4cccnc34)c(N3CCOCC3)cc2C1=O`, the dTM in assay [6] was determined as 0.9 K.

Consider `COc1cc(N(C)c2ccnc3ccc(C(F)(F)F)cc23)cc(OC)c1OC`, for which, in assay [7], the % binding is 92%. In the case of `Nc1cnc(N2CCc3cc(S(=O)(=O)Nc4c(F)cc(Cl)cc4F)cc(N4CCCC4=O)c32)nc1` [TP-020n], in [8], the % of control was 100%. In turn, `CCn1c(-c2nc3cc(C(=O)N4CCCC(N)C4)ccc3n2C)cc2ccccc21` (stereo not given) returned a pXC50 in assay [9] of less than 4.5 M. As for `N#Cc1cccc(-c2c[nH]c3ncnc(N4CCOCC4)c23)c1`, the % of control stood at 73% in assay [10] and 94% in assay [11]. For the compound `CC[C@@H]1[C@H](F)C(=O)N[C@@H]1COc1nccc2cc(C(N)=O)c(OC)cc12` [ZIMLOVISERTIB], the % of inhibition on SRSF protein kinase 1 (at 0.01 µM) was 6.9%; on SRSF protein kinase 1 (at 0.04 µM), -23%; at SRSF protein kinase 1 (at 0.2 µM) it was -5.5%; on SRSF protein kinase 1 (at 1 µM), 11.7%; on SRSF protein kinase 1 (at 5 µM), 19.9%.

On to `C=CC(=O)Nc1cc(-n2c(=O)ccc3cnc4ccc(-c5ccc(NS(C)(=O)=O)cc5)cc4c32)ccc1C`, for which the values for the % of control in [12] (at 1 µM) and in assay [12] (at 10 µM) were 100% and 95%, respectively. Regarding `Cc1ccc(-c2ccc3c(ccc4sc5c(c43)NC[C@@H](C)NC5=O)n2)cn1`, the % of inhibition in [13] is 11%.
